Experiment in all cases: In vitro antibacterial activity, broth microdilution MIC90
Holding throughout (format): cell-based
On the technique in general: In broth dilution the organism is exposed to a series of concentrations in liquid medium.

Test [1] relates to Enterococcus faecalis. Summed up:
(§1)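 Compounds were serially diluted to final concentrations of 0.063–128 μg/mL in 2.5% (V/V) DMSO, then tested by CLSI-based broth microdilution against 12 Gram-positive and Moraxella strains. MIC90 values were recorded alongside a linezolid control.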

The subject of test [2] is Vancomycin Resistant Enterococcus faecalis. The gist of the method: as §1
For test [3], the system named is Moraxella catarrhalis. The gist of the method:
as §1

Test [4] has as its system Linezolid and Vancomycin Resistant Enterococcus faecium (strain 11). Summed up:
as §1

In test [5] the test system is Linezolid and Vancomycin Resistant Enterococcus faecalis. Summed up:
as §1

Test [6] has as its system Linezolid and Vancomycin Resistant Enterococcus faecium (strain 10). Summed up:
as §1

Test [7] concerns Methicillin Resistant Staphylococcus aureus. Summed up: as §1
The subject of test [8] is Methicillin Resistant Staphylococcus epidermidis. The gist of the method:
as §1

For test [9], the system named is Vancomycin Resistant Enterococcus faecium. The gist of the method: as §1
The subject of test [10] is Staphylococcus epidermidis. The gist of the method: as §1
Test [11] concerns Enterococcus faecium. Summed up:
as §1

The test system of test [12] is Staphylococcus aureus. Summed up:
as §1

Where [13] appears, read: Enterococcus faecalis, strain 5, E. faecalis, read-out: MIC90.
The mark [14] stands for this setting: Enterococcus faecalis, strain 6, E. faecalis VanA, read-out: MIC90.
[15] abbreviates: Moraxella catarrhalis, strain 12, M. catarrhalis, read-out: MIC90.
Where [16] appears, read: Enterococcus faecium, strain 11, E. faecium VanA LR, read-out: MIC90.
[17] abbreviates: Enterococcus faecalis, strain 7, E. faecalis VanA LR, read-out: MIC90.
Setting [18] is: Enterococcus faecium, strain 10, E. faecium VanA LR, read-out: MIC90.
The mark [19] stands for this setting: Staphylococcus aureus, strain 2, S. aureus MR, read-out: MIC90.
The mark [20] stands for this setting: Staphylococcus epidermidis, strain 4, S. epidermidis MR, read-out: MIC90.
Where [21] appears, read: Enterococcus faecium, strain 9, E. faecium VanA, read-out: MIC90.
The mark [22] stands for this setting: Staphylococcus epidermidis, strain 3, S. epidermidis, read-out: MIC90.
Where [23] appears, read: Enterococcus faecium, strain 8, E. faecium, read-out: MIC90.
[24] abbreviates: Staphylococcus aureus, strain 1, S. aureus, read-out: MIC90.

In brackets after ≈: the same amount, converted by molar mass. Where two headings read alike, the source gives them in different places.

In the case of `C#CCN1CCN(c2ccc(-c3ccc(N4C[C@H](CNC(C)=O)OC4=O)cc3F)cn2)C=N1` [Compound 8], the MIC90 amounted to 0.5 µg/mL (≈ 1.11 µM) in test [1] (Enterococcus faecalis); 1 µg/mL (≈ 2.22 µM) in test [2] (Enterococcus faecalis); 2 µg/mL (≈ 4.44 µM) in test [3] (Moraxella catarrhalis); 4 µg/mL (≈ 8.88 µM) in test [4] (Enterococcus faecium); 4 µg/mL (≈ 8.88 µM) in test [5] (Enterococcus faecalis); 4 µg/mL (≈ 8.88 µM) in test [6] (Enterococcus faecium). Further, the MIC90 in [7] (Staphylococcus aureus) came out at 1 µg/mL (≈ 2.22 µM); in [8] (Staphylococcus epidermidis) it was 1 µg/mL (≈ 2.22 µM); in test [9] (Enterococcus faecium), 0.5 µg/mL (≈ 1.11 µM); in test [10] (Staphylococcus epidermidis), 0.5 µg/mL (≈ 1.11 µM); in [11] (Enterococcus faecium), 1 µg/mL (≈ 2.22 µM); in [12] (Staphylococcus aureus), 0.25 µg/mL (≈ 0.555 µM).
For `CC(=O)NC[C@H]1CN(c2ccc(-c3ccc(N4C=NN(C(=O)CO)CC4)nc3)c(F)c2)C(=O)O1` [Compound 11], the MIC90 in test [1] (Enterococcus faecalis) turned out to be 0.125 µg/mL (≈ 0.266 µM); in test [2] (Enterococcus faecalis) it was 0.125 µg/mL (≈ 0.266 µM); in [3] (Moraxella catarrhalis) it was 1 µg/mL (≈ 2.13 µM); in test [4] (Enterococcus faecium) it was 1 µg/mL (≈ 2.13 µM); in [5] (Enterococcus faecalis), 0.5 µg/mL (≈ 1.06 µM); in test [6] (Enterococcus faecium) it was 0.5 µg/mL (≈ 1.06 µM). For the same compound, the MIC90 in test [7] (Staphylococcus aureus) was determined as 0.25 µg/mL (≈ 0.531 µM); in test [8] (Staphylococcus epidermidis), 0.25 µg/mL (≈ 0.531 µM); in test [9] (Enterococcus faecium), 0.125 µg/mL (≈ 0.266 µM); in test [10] (Staphylococcus epidermidis), 0.063 µg/mL (≈ 0.134 µM); in test [11] (Enterococcus faecium), 0.063 µg/mL (≈ 0.134 µM); in [12] (Staphylococcus aureus), 0.063 µg/mL (≈ 0.134 µM). Further, the “antibacterial activity against linezolid-resistant bacteria (in words)” value in test [5] (Enterococcus faecalis and Enterococcus faecium which are resistant to linezolid) is reported as “very high antibacterial activity”.
Take `O=C1O[C@@H](CNc2ccon2)CN1c1ccc(-c2ccc(N3C=NOCC3)nc2)c(F)c1` [Compound 61]: the MIC90 in test [1] (strain 5, E. faecalis) came out at 0.5 µg/mL (≈ 1.14 µM); in [2] (strain 6, E. faecalis VanA), 0.5 µg/mL (≈ 1.14 µM); in test [3] (strain 12, M. catarrhalis) it was 2 µg/mL (≈ 4.56 µM); in test [4] (strain 11, E. faecium VanA LR) it was 2 µg/mL (≈ 4.56 µM); in test [5] (strain 7, E. faecalis VanA LR), 2 µg/mL (≈ 4.56 µM); in test [6] (strain 10, E. faecium VanA LR), 2 µg/mL (≈ 4.56 µM). Besides, the MIC90 in [7] (strain 2, S. aureus MR) is 0.25 µg/mL (≈ 0.57 µM); in test [8] (strain 4, S. epidermidis MR), 0.5 µg/mL (≈ 1.14 µM); in test [9] (strain 9, E. faecium VanA), 0.5 µg/mL (≈ 1.14 µM); in test [10] (strain 3, S. epidermidis), 0.25 µg/mL (≈ 0.57 µM); in test [11] (strain 8, E. faecium), 0.25 µg/mL (≈ 0.57 µM); in test [12] (strain 1, S. aureus) it was 0.063 µg/mL (≈ 0.144 µM).
For the compound `CCN1CCN(c2ccc(-c3ccc(N4C[C@H](CO)OC4=O)cc3F)cn2)C=N1` [Compound 29], the MIC90 was found to be 16 µg/mL (≈ 40.1 µM) in [1] (Enterococcus faecalis); 16 µg/mL (≈ 40.1 µM) in test [2] (Enterococcus faecalis); 32 µg/mL (≈ 80.1 µM) in test [3] (Moraxella catarrhalis); 64 µg/mL (≈ 160 µM) in [4] (Enterococcus faecium); 64 µg/mL (≈ 160 µM) in test [5] (Enterococcus faecalis); 64 µg/mL (≈ 160 µM) in [6] (Enterococcus faecium). In addition, the MIC90 in [7] (Staphylococcus aureus) came to 8 µg/mL (≈ 20 µM); in [8] (Staphylococcus epidermidis) it was 8 µg/mL (≈ 20 µM); in test [9] (Enterococcus faecium), 8 µg/mL (≈ 20 µM); in [10] (Staphylococcus epidermidis) it was 4 µg/mL (≈ 10 µM); in test [11] (Enterococcus faecium), 8 µg/mL (≈ 20 µM); in [12] (Staphylococcus aureus) it was 8 µg/mL (≈ 20 µM).
As for `O=C1O[C@@H](CO)CN1c1ccc(-c2ccc(N3C=NOCC3)nc2)c(F)c1` [Compound 58], the MIC90 in [1] (setting [13]) was 1 µg/mL (≈ 2.69 µM); in test [2] (setting [14]), 0.5 µg/mL (≈ 1.34 µM); in [3] (setting [15]) it was 8 µg/mL (≈ 21.5 µM); in [4] (setting [16]), 8 µg/mL (≈ 21.5 µM); in test [5] (setting [17]), 8 µg/mL (≈ 21.5 µM); in [6] (setting [18]), 4 µg/mL (≈ 10.7 µM). The MIC90 in test [7] (setting [19]) was found to be 1 µg/mL (≈ 2.69 µM); in test [8] (setting [20]), 1 µg/mL (≈ 2.69 µM); in [9] (setting [21]) it was 1 µg/mL (≈ 2.69 µM); in test [10] (setting [22]), 0.5 µg/mL (≈ 1.34 µM); in test [11] (setting [23]) it was 0.5 µg/mL (≈ 1.34 µM); in [12] (setting [24]), 0.5 µg/mL (≈ 1.34 µM).
Take `NCC(=O)N1CCN(c2ccc(-c3ccc(N4C[C@H](CNc5ccon5)OC4=O)cc3F)cn2)C=N1` [Compound 42]: the MIC90 in test [1] (strain 5, E. faecalis) came to 0.5 µg/mL (≈ 1.01 µM); in [2] (strain 6, E. faecalis VanA), 1 µg/mL (≈ 2.02 µM); in test [3] (strain 12, M. catarrhalis), 2 µg/mL (≈ 4.04 µM); in test [4] (strain 11, E. faecium VanA LR) it was 4 µg/mL (≈ 8.09 µM); in [5] (strain 7, E. faecalis VanA LR), 2 µg/mL (≈ 4.04 µM); in test [6] (strain 10, E. faecium VanA LR) it was 4 µg/mL (≈ 8.09 µM). In addition, the MIC90 was found to be 0.5 µg/mL (≈ 1.01 µM) in test [7] (strain 2, S. aureus MR); 2 µg/mL (≈ 4.04 µM) in test [8] (strain 4, S. epidermidis MR); 0.5 µg/mL (≈ 1.01 µM) in test [9] (strain 9, E. faecium VanA); 0.5 µg/mL (≈ 1.01 µM) in [10] (strain 3, S. epidermidis); 0.125 µg/mL (≈ 0.253 µM) in [11] (strain 8, E. faecium); 0.25 µg/mL (≈ 0.506 µM) in test [12] (strain 1, S. aureus).
`CC(=O)NC[C@H]1CN(c2ccc(-c3ccc(N4C=NN(C(=O)C(O)CO)CC4)nc3)c(F)c2)C(=O)O1` (stereo partly shown) [Compound 21]: the MIC90 in test [1] (setting [13]) came to 1 µg/mL (≈ 2 µM); in test [2] (setting [14]) it was 1 µg/mL (≈ 2 µM); in test [3] (setting [15]), 4 µg/mL (≈ 7.99 µM); in test [4] (setting [16]) it was 4 µg/mL (≈ 7.99 µM); in test [5] (setting [17]), 2 µg/mL (≈ 4 µM); in test [6] (setting [18]), 2 µg/mL (≈ 4 µM). Moreover, the MIC90 amounted to 1 µg/mL (≈ 2 µM) in test [7] (setting [19]); 1 µg/mL (≈ 2 µM) in test [8] (setting [20]); 0.5 µg/mL (≈ 0.999 µM) in test [9] (setting [21]); 0.5 µg/mL (≈ 0.999 µM) in [10] (setting [22]); 0.5 µg/mL (≈ 0.999 µM) in test [11] (setting [23]); 0.25 µg/mL (≈ 0.5 µM) in [12] (setting [24]).

For orientation: MIC90 means the lowest concentration that inhibits either 90% of growth or 90% of the strains tested, depending on the study.
